Experimental data taken from PubChem BioAssay AID248 (DTP/NCI, 2004).
Toxic doses and inconclusive results are not listed. No stated cut-off is given here; in the data, active means T/C of 150% or more; inactive means T/C below 125%.

System: L1210 leukemia ip in BDF1 mice, survival T/C
Experiment: NCI In Vivo Anticancer Drug Screen. Data for tumor model L1210 Leukemia (intraperitoneal) in B6D2F1 (BDF1) mice
Conditions: endpoint: mean survival time, higher = longer survival
How it was run: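 Antitumor effect is assessed in tumor-bearing animals. Survival in the compound arm is compared with a vehicle-dosed control arm and expressed as their quotient.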

[1] = dose: 100.0 mg/kg/injection, schedule: Q01DX009 (ip), vehicle: saline with Tween-80
[2] = dose: 200.0 mg/kg/injection, schedule: Q04DX002 (ip), vehicle: saline
[3] = dose: 6.25 mg/kg/injection, schedule: Q01DX009 (ip), vehicle: Klucel (hydroxypropylcellulose) (HPC)
[4] = dose: 12.5 mg/kg/injection, schedule: Q01DX009 (ip), vehicle: Klucel (hydroxypropylcellulose) (HPC)
[5] = dose: 25.0 mg/kg/injection, schedule: Q01DX009 (ip), vehicle: Klucel (hydroxypropylcellulose) (HPC)
[6] = dose: 100.0 mg/kg/injection, schedule: Q04DX003 (ip), vehicle: Klucel (hydroxypropylcellulose) (HPC)
[7] = dose: 200.0 mg/kg/injection, schedule: Q04DX003 (ip), vehicle: Klucel (hydroxypropylcellulose) (HPC)
[8] = dose: 75.0 mg/kg/injection, schedule: Q01DX001 (ip), vehicle: saline
[9] = dose: 100.0 mg/kg/injection, schedule: Q01DX009 (ip), vehicle: Klucel (hydroxypropylcellulose) (HPC)
[10] = dose: 200.0 mg/kg/injection, schedule: Q01DX009 (ip), vehicle: Klucel (hydroxypropylcellulose) (HPC)
[11] = dose: 100.0 mg/kg/injection, schedule: Q01DX001 (ip), vehicle: saline with Tween-80
[12] = dose: 200.0 mg/kg/injection, schedule: Q01DX001 (ip), vehicle: saline with Tween-80
[13] = dose: 400.0 mg/kg/injection, schedule: Q01DX001 (ip), vehicle: saline with Tween-80
[14] = dose: 50.0 mg/kg/injection, schedule: Q01DX009 (ip), vehicle: Klucel (hydroxypropylcellulose) (HPC)
[15] = dose: 100.0 mg/kg/injection, schedule: Q01DX009 (ip), vehicle: saline
[16] = dose: 200.0 mg/kg/injection, schedule: Q01DX009 (ip), vehicle: saline
[17] = dose: 400.0 mg/kg/injection, schedule: Q01DX009 (ip), vehicle: saline
[18] = dose: 400.0 mg/kg/injection, schedule: Q04DX003 (ip), vehicle: Klucel (hydroxypropylcellulose) (HPC)
[19] = dose: 50.0 mg/kg/injection, schedule: Q04DX003 (ip), vehicle: Klucel (hydroxypropylcellulose) (HPC)

Measured: T/C

CC[CH2][Sn]([CH2]CC)([CH2]CC)[CH2]Cc1ccncc1
inactive: dose: 6.25 mg/kg/injection, schedule: Q04DX002 (ip), vehicle: saline with Tween-80 101 % of control | dose: 12.5 mg/kg/injection, schedule: Q04DX002 (ip), vehicle: saline with Tween-80 93 % of control | dose: 25.0 mg/kg/injection, schedule: Q04DX002 (ip), vehicle: saline with Tween-80 89 % of control

O=S(=O)(/C=C\c1ccccc1)CBr
inactive: dose: 100.0 mg/kg/injection, schedule: Q04DX002 (ip), vehicle: Klucel (hydroxypropylcellulose) (HPC) 100 % of control | dose: 200.0 mg/kg/injection, schedule: Q04DX002 (ip), vehicle: Klucel (hydroxypropylcellulose) (HPC) 97 % of control | dose: 400.0 mg/kg/injection, schedule: Q04DX002 (ip), vehicle: Klucel (hydroxypropylcellulose) (HPC) 106 % of control

COc1cccc(C(C)(C)COS(=O)(=O)c2ccc(C)cc2)c1
inactive: dose: 50.0 mg/kg/injection, schedule: Q01DX009 (ip), vehicle: saline with Tween-80 90 % of control | [1] 90 % of control

C#CCOCCC#N
inactive: dose: 100.0 mg/kg/injection, schedule: Q04DX002 (ip), vehicle: saline 101 % of control | [2] 94 % of control

COc1cccc(C2CCN(C)C2)c1 (centres undefined)
inactive: [3] 110 % of control | [4] 108 % of control | [5] 103 % of control | [6] 105 % of control | [7] 103 % of control

NNC(=S)Nc1cccc(Cl)c1
inactive: [8] 103 % of control | dose: 150.0 mg/kg/injection, schedule: Q01DX001 (ip), vehicle: saline 102 % of control

O=C1CC(O)(c2ccccc2)C2(c3ccccc3)OC2O1 (centres undefined)
inactive: dose: 100.0 mg/kg/injection, schedule: Q01DX001 (ip), vehicle: Klucel (hydroxypropylcellulose) (HPC) 101 % of control | [9] 96 % of control | dose: 200.0 mg/kg/injection, schedule: Q01DX001 (ip), vehicle: Klucel (hydroxypropylcellulose) (HPC) 101 % of control | [10] 93 % of control | dose: 400.0 mg/kg/injection, schedule: Q01DX001 (ip), vehicle: Klucel (hydroxypropylcellulose) (HPC) 101 % of control | dose: 400.0 mg/kg/injection, schedule: Q01DX009 (ip), vehicle: Klucel (hydroxypropylcellulose) (HPC) 95 % of control

CCO/C=C/C(=O)NC(=S)Nc1ccccc1
inactive: [11] 97 % of control | [1] 86 % of control | [12] 100 % of control | dose: 200.0 mg/kg/injection, schedule: Q01DX009 (ip), vehicle: saline with Tween-80 86 % of control | [13] 102 % of control

c1ccc(-n2cc(-c3nc(N4CC4)nc(N4CC4)n3)c3ccccc32)cc1
inactive: [14] 121 % of control | [9] 103 % of control | [6] 112 % of control | [7] 118 % of control

O=C(O)c1cc(S(=O)(=O)Cl)cc(S(=O)(=O)Cl)c1
inactive: [8] 107 % of control

O=S1(=O)CC(Br)C1
inactive: dose: 12.5 mg/kg/injection, schedule: Q04DX002 (ip), vehicle: Klucel (hydroxypropylcellulose) (HPC) 86 % of control | [5] 96 % of control | dose: 25.0 mg/kg/injection, schedule: Q04DX002 (ip), vehicle: Klucel (hydroxypropylcellulose) (HPC) 93 % of control | [14] 96 % of control | dose: 50.0 mg/kg/injection, schedule: Q04DX002 (ip), vehicle: Klucel (hydroxypropylcellulose) (HPC) 109 % of control

O=C1c2nc3ccccc3nc2C(=O)N1O
inactive: [9] 107 % of control | [10] 100 % of control

O=C1/C(=C/c2ccc(Cl)cc2)CCc2ccccc21
inactive: dose: 100.0 mg/kg/injection, schedule: Q01DX001 (ip), vehicle: saline 101 % of control | [15] 97 % of control | dose: 200.0 mg/kg/injection, schedule: Q01DX001 (ip), vehicle: saline 101 % of control | [16] 96 % of control | dose: 400.0 mg/kg/injection, schedule: Q01DX001 (ip), vehicle: saline 97 % of control | [17] 86 % of control

c1ccc(C2=NCN=C2c2ccccc2)cc1
inactive: [6] 99 % of control | [7] 101 % of control | [18] 92 % of control

CNC(=S)N/N=C(/C)CCC/C(C)=N/NC(=S)NC
inactive: dose: 1.56 mg/kg/injection, schedule: Q03HX024 (ip), vehicle: Klucel (hydroxypropylcellulose) (HPC) 95 % of control | dose: 3.12 mg/kg/injection, schedule: Q01DX009 (ip), vehicle: Klucel (hydroxypropylcellulose) (HPC) 96 % of control | dose: 3.12 mg/kg/injection, schedule: Q03HX024 (ip), vehicle: Klucel (hydroxypropylcellulose) (HPC) 102 % of control | [3] 96 % of control | dose: 6.25 mg/kg/injection, schedule: Q03HX024 (ip), vehicle: Klucel (hydroxypropylcellulose) (HPC) 97 % of control | dose: 6.25 mg/kg/injection, schedule: Q04DX003 (ip), vehicle: Klucel (hydroxypropylcellulose) (HPC) 108 % of control | [4] 92 % of control | dose: 12.5 mg/kg/injection, schedule: Q03HX024 (ip), vehicle: Klucel (hydroxypropylcellulose) (HPC) 95 % of control | dose: 12.5 mg/kg/injection, schedule: Q04DX003 (ip), vehicle: Klucel (hydroxypropylcellulose) (HPC) 101 % of control | [5] 101 % of control | dose: 25.0 mg/kg/injection, schedule: Q03HX024 (ip), vehicle: Klucel (hydroxypropylcellulose) (HPC) 92 % of control | dose: 25.0 mg/kg/injection, schedule: Q04DX003 (ip), vehicle: Klucel (hydroxypropylcellulose) (HPC) 103 % of control | [14] 98 % of control | [19] 101 % of control | [6] 103 % of control | [7] 93 % of control | [18] 108 % of control

O=C1c2ccccc2C(=O)C1c1ccccc1
inactive: [6] 102 % of control | [7] 104 % of control | [18] 106 % of control

NC(=S)NC(N)=S
inactive: dose: 100.0 mg/kg/injection, schedule: Q04DX003 (ip), vehicle: saline with Tween-80 94 % of control | dose: 200.0 mg/kg/injection, schedule: Q04DX003 (ip), vehicle: saline with Tween-80 96 % of control | dose: 400.0 mg/kg/injection, schedule: Q04DX003 (ip), vehicle: saline with Tween-80 96 % of control

CC(=O)c1ccccc1C(=O)O
inactive: [19] 98 % of control | [6] 94 % of control | [7] 96 % of control

CC(=O)CC(C)=O.CCCCC(C[C-]=O)N(CC)CC.[Pd+2] (centres undefined)
inactive: dose: 2.4 mg/kg/injection, schedule: Q04DX003 (ip), vehicle: distilled water + Tween-80 97 % of control | dose: 4.7 mg/kg/injection, schedule: Q04DX003 (ip), vehicle: distilled water + Tween-80 101 % of control | dose: 9.4 mg/kg/injection, schedule: Q04DX003 (ip), vehicle: distilled water + Tween-80 98 % of control | dose: 18.8 mg/kg/injection, schedule: Q04DX003 (ip), vehicle: distilled water + Tween-80 90 % of control

CN(C)c1n[nH]c(N)n1
inactive: dose: 25.0 mg/kg/injection, schedule: Q01DX009 (ip), vehicle: saline 100 % of control | dose: 25.0 mg/kg/injection, schedule: Q04DX002 (ip), vehicle: saline 110 % of control | dose: 50.0 mg/kg/injection, schedule: Q01DX009 (ip), vehicle: saline 98 % of control | dose: 50.0 mg/kg/injection, schedule: Q04DX002 (ip), vehicle: saline 103 % of control | [15] 96 % of control | [16] 108 % of control | dose: 200.0 mg/kg/injection, schedule: Q04DX002 (ip), vehicle: saline with Tween-80 111 % of control | [2] 103 % of control | [17] 116 % of control | dose: 400.0 mg/kg/injection, schedule: Q04DX002 (ip), vehicle: saline with Tween-80 108 % of control

Cc1c(CBr)c2ccccc2[nH]c1=O
inactive: dose: 100.0 mg/kg/injection, schedule: Q01DX001 (ip), vehicle: other 97 % of control | dose: 200.0 mg/kg/injection, schedule: Q01DX001 (ip), vehicle: other 108 % of control

C[S+](C)c1ccccc1NCc1ccccc1O
inactive: [11] 92 % of control | [12] 93 % of control | [13] 90 % of control
